According to patent EP2649091B1, “IMMUNE RESTRICTED PEPTIDES WITH INCREASED EFFICACY” (Stichting Het Nederlands Kanker Instituut, priority 2010, dated 2012):
Values joined by “and” are separate entries in the source; they are usually repeats but may differ in a detail not shown here. Identical values can stand only once. am‑phg = not defined here; PRG = not defined here

Experiments:
[1] = test system: LLFGLALIEV-specific CD8+ T cells; assay: Mouse vaccination study, LLFGLALIEV tetramer analysis of blood; type: in vivo; settings: mice vaccinated with 100 µg peptide with IFA and CpG; compared with LLFGLALIEV vaccinated mice, at all times after day one
Description: (§1) Three mouse vaccination studies were done using three different wild-type epitopes. In all cases, mice were vaccinated with the peptide supplemented with incomplete freunds ajuvant (IFA) and CpG. Analysis was done by analyzing blood samples with tetramers loaded with wild-type peptide in all cases.
(§2) This was done for both groups of mice.

[2] = test system: […]-specific CD8+ T cells; assay: Mouse vaccination study, […] tetramer analysis of blood; type: in vivo; settings: mice vaccinated with 5 µg peptide with IFA and CpG, booster at day 97; compared with […] vaccinated mice, at all times
Procedure: as §1
(§3) Two groups of three mice were vaccinated with 5 µg of either […] or [am-phg][NVA]AGIGILT[PRG]. At day 97, mice were administred a second dose (booster). At several timepoints blood was taken and tested for […]-specific CD8+ T cells using tetramers loaded with […]. This was done for both groups of mice.

[3] = test system: […]-specific CD8+ T cells; assay: Mouse vaccination study, tetramer analysis of blood, […]; type: in vivo; settings: mice vaccinated with 5 µg peptide with IFA and CpG, booster at day 97, several timepoints, versus […] vaccinated mice
Procedure: as §1, §3

[4] = test system: HLA-A2::Mart-1(26-35) reactive T cells stimulated by T2 cells; assay: T cell activation time course assay, IFNγ production (FACS), Mart-1 epitope; type: cell-based; settings: for % CD8+ T cells producing IFN-γ 0H / Geometric mean IFN-γ in arbitrary fluorescence units 0H: time point 0H (basal); for % CD8+ T cells producing IFN-γ 2H / Geometric mean IFN-γ in arbitrary fluorescence units 2H: time point 2H; for % CD8+ T cells producing IFN-γ 4H / Geometric mean IFN-γ in arbitrary fluorescence units 4H: time point 4H; for % CD8+ T cells producing IFN-γ 24H / Geometric mean IFN-γ in arbitrary fluorescence units 24H: time point 24H; for % CD8+ T cells producing IFN-γ 24H / Geometric mean IFN-γ in arbitrary fluorescence units 24H / % CD8+ T cells producing IFN-γ 48H / Geometric mean IFN-γ in arbitrary fluorescence units 48H: free peptide washed away; for % CD8+ T cells producing IFN-γ 48H / Geometric mean IFN-γ in arbitrary fluorescence units 48H: time point 48H
HLA-A0201 = HLA-A0201 (Homo sapiens, UniProt P04439, D140Y/D185E/D98H/E176V/E277Q/G131W/G231S/I119V/I121R/I166T/I218V/L300P/L318F/N151K/N90K/P208A/P217A/Q86G/Q94H/R138H/R169H/T345S); type: binding
[5] = test system: LLFGLALIEV-specific CD8+ T cells; assay: Mouse vaccination study, tetramer analysis of blood, LLFGLALIEV; type: in vivo; settings: mice vaccinated with 100 µg peptide with IFA and CpG, all times after day one, versus LLFGLALIEV vaccinated mice
Description: as §1, §2

[6] = test system: T cell line specific for LLFGLALIEV; assay: T cell activation, FACS based interferon-gamma production assay, Mage-C2 LLFGLALIEV
Description: FACS was employed to obtain results.
T cell activation was quantified using the FACS based interferon-gamma production assay as materials and methods section. Table 10 HLA binding and T cell activation of modified Melanoma-associated protein C2 (pp-qq) epitopes used in vaccination studies.

## [PHG][2-AOC]FGLALIEV [listing 1 of 2 here]
[1]
  LLFGLALIEV-specific CD8+ T cells in blood: specific T cell numbers were higher

## [am-phg][NVA]AGIGILT[PRG] ({am‑phg-NVA}-AGIGILT-{PRG}; reading uncertain; also: printed as [am-phg][NVA]AGIGILT[PRG])
[2]
  […]-specific CD8+ T cells in blood: specific T cell numbers were higher

## [am-phg][NVA]AGIGILT[PRG]
[3]
  […]-specific CD8+ T cells (specific T cell numbers): higher
[4]; peptide 0.5 pM
  % CD8+ T cells producing IFN-γ 0H: 0%
  Geometric mean IFN-γ in arbitrary fluorescence units 0H: 141 arbitrary fluorescence units
  % CD8+ T cells producing IFN-γ 2H: 25%
  Geometric mean IFN-γ in arbitrary fluorescence units 2H: 197 arbitrary fluorescence units
  % CD8+ T cells producing IFN-γ 4H: 30%
  Geometric mean IFN-γ in arbitrary fluorescence units 4H: 342 arbitrary fluorescence units
  % CD8+ T cells producing IFN-γ 24H: 16%
  Geometric mean IFN-γ in arbitrary fluorescence units 24H: 165 arbitrary fluorescence units
  % CD8+ T cells producing IFN-γ 48H: 3%
  Geometric mean IFN-γ in arbitrary fluorescence units 48H: 105 arbitrary fluorescence units
[4]; peptide 50 pM
  % CD8+ T cells producing IFN-γ 0H: 0%
  Geometric mean IFN-γ in arbitrary fluorescence units 0H: 110 arbitrary fluorescence units
  % CD8+ T cells producing IFN-γ 2H: 28%
  Geometric mean IFN-γ in arbitrary fluorescence units 2H: 252 arbitrary fluorescence units
  % CD8+ T cells producing IFN-γ 4H: 32%
  Geometric mean IFN-γ in arbitrary fluorescence units 4H: 550 arbitrary fluorescence units
  % CD8+ T cells producing IFN-γ 24H: 28%
  Geometric mean IFN-γ in arbitrary fluorescence units 24H: 344 arbitrary fluorescence units
  % CD8+ T cells producing IFN-γ 48H: 18%
  Geometric mean IFN-γ in arbitrary fluorescence units 48H: 222 arbitrary fluorescence units
HLA-A0201
  % inhibition at T=4H and T=24H FP 4h: 67%
  % inhibition at T=4H and T=24H FP 24h: 64%
  IC50 Ratio: 8.3 and 8

## [PHG][2-AOC]FGLALIEV [listing 2 of 2 here]
[5]
  LLFGLALIEV-specific CD8+ T cells (specific T cell numbers): higher
[6]
  % Positive TCR recognition % TCR: 13.7%
  Geometric mean in arbitrary fluorescence units Geo TCR: 108 arbitrary fluorescence units
